Values after ≈ are worked out from the molar mass of the structure shown.
conditions: buffer; pH 7.4; 200.0 µM

| SMILES | solubility kinetic [µg/mL] |
| --- | --- |
| Cc1cc(C)c(C#N)c(N2CCN(c3ccccc3F)CC2)n1 | 3.8 (≈ 12.2 µM) |
| Cc1ccc(CNC(=O)CCc2cn(C)c3ccccc23)cc1 | 5.1 (≈ 16.6 µM) |
| Cc1cc(C(=O)O)ccc1NCc1cccnc1 | 36 (≈ 149 µM) |
| CN(C(=O)CSCC(=O)Nc1ccc(Cl)cc1)C1CCCCC1 | 5.9 (≈ 16.6 µM) |
| S=C(CN1CCCC1=S)N1CCOCC1 | > 36.7 |
| CC(C)c1ccc(OCC(O)CN2CCCC2)cc1.Cl (stereo unspecified) | 43.8 |
| C[C@@H]1CN(Cc2nc(-c3cccs3)no2)C[C@H](C)O1 | 38 (≈ 136 µM) |
| O=C(Nc1ccccc1Cl)Nc1ccccc1Cl | < 0.3 |
| Cc1ccc(OC(C)C(=O)Nc2ccncc2)cc1C (stereo unspecified) | 34 (≈ 126 µM) |
| CCOc1ccc(C(=O)NCc2ccco2)cc1Cl | 34.5 (≈ 123 µM) |
| CCOc1cc(S(=O)(=O)Nc2ccncc2)ccc1F | > 44.4 |
| COC(=O)CSc1ncnc2c1sc1nc3c(cc12)COC(C)(C)C3 | 1.6 (≈ 4.26 µM) |
| Cc1ccnc(NS(=O)(=O)c2ccc3ccccc3c2)n1 | 28.1 (≈ 93.9 µM) |
| Cc1cnc(NC(=O)c2ccc(Cl)nc2)s1 | 6.6 (≈ 26 µM) |
| Cc1ccccc1C(=O)c1c[nH]c(C(=O)NCCc2ccccn2)c1 | > 50 |
| Cc1ccc(NC(=O)CN(C)C(=S)NC2CC2)cc1 | > 41.6 |
| FC(F)(F)c1ccccc1NC1=NCCCS1 | > 39 |
| Cc1cc(NC(=O)C(=O)c2cn(C)c3ccccc23)no1 | 0.6 (≈ 2.12 µM) |
| O=C(O)C(Cc1ccccc1)N=C(NS(=O)(=O)c1ccccc1)c1ccccc1 (stereo unspecified) | > 61.3 |
| Cc1csc(SC(C)C(=O)Nc2ccc(F)cc2Cl)n1 (stereo unspecified) | 44.9 (≈ 136 µM) |
| COc1ccc(CN2CCSCC2)c(C)c1C | 5.7 (≈ 22.7 µM) |

| SMILES | solubility kinetic [µg/mL] |
| --- | --- |
| Cc1ccc(CC(=O)NCC2CCCCC2)cc1 | 9.3 (≈ 37.9 µM) |
| O=C(O)CCCn1c(=O)c2cccn2c2ccc(F)cc21 | > 43.2 |
| O=C(COC(=O)COc1ccccc1F)Nc1cccc(S(=O)(=O)N2CCCCC2)c1 | 47.8 (≈ 106 µM) |
| CN(C)/C=C/C(=O)c1ccc(C(F)(F)F)cc1F | 35 (≈ 134 µM) |
| COc1ccccc1OCCn1c(C)c(C=O)c2ccccc21 | 1 (≈ 3.23 µM) |
| OCCN(CCO)CC(O)COc1ccc(Br)cc1 (stereo unspecified) | 6.7 (≈ 20 µM) |
| CCCS(=O)(=O)Nc1ccc(-c2cn3c(n2)SCC3)cc1 | 44.5 (≈ 138 µM) |
| CC(C)(C)C(=O)N(Cc1ccc(Cl)cc1)Cc1cccnc1 | 42.6 (≈ 134 µM) |
| CCN(CC(=O)Nc1c(F)cccc1F)C(=O)CSc1ccc(F)cc1 | > 57.4 |
| O=C(Cc1cccs1)NCCCc1ccccc1 | > 38.9 |
| COc1ccc(NCCc2ccccn2)cc1.Cl | > 45.2 |
| CCOC(=O)Cn1nc(C)c(NC(=O)COc2ccc(OC)cc2)c1C | > 54.2 |
| O=C(Nc1ccc2c(c1)OCCO2)c1ccc(Br)cc1 | < 0.7 |
| N#Cc1ccccc1OCC(=O)OCC(=O)NC1CCCCCC1 | > 49.6 |
| Cc1cccc2nc(C(=O)Nc3cccc(C(=O)NC4CC4)c3)cn12 | 5.5 (≈ 16.4 µM) |
| Cl.N=c1ccccn1Cc1ccccc1 | > 33.1 |
| COC(=O)c1cnn2c1C(=O)N(Cc1cccs1)CC2 | > 43.7 |
| CSc1nc2ccccc2c(=O)n1C1CCCCC1 | 1 (≈ 3.64 µM) |
| CCOc1ccc(NC(=O)c2cc(Cl)nc3ccccc23)cc1 | 0.4 (≈ 1.22 µM) |
| COc1ccc(CCNC2CCc3ccccc3C2)cc1 (stereo unspecified) | 28.3 (≈ 101 µM) |
| COc1ccccc1C(=O)NCCOc1ccc(C)c(C)c1 | 43 (≈ 144 µM) |

| SMILES | solubility kinetic [µg/mL] |
| --- | --- |
| CC(C(=O)NC1CCCCC1)N1C(=O)c2cccc3cccc1c23 (stereo unspecified) | 3.5 (≈ 10.9 µM) |
| Cc1nccc(-c2ccc(-n3c(C)ccc3C)cc2)n1 | 33 (≈ 125 µM) |
| CN1CCN(NC(=O)CC(C)(C)C)CC1 | > 32 |
| CN1C(=O)/C(=C\c2ccco2)N=C1c1ccc(Cl)cc1Cl | 33 (≈ 103 µM) |
| Cc1c(C=O)c2ccccn2c1C(=O)c1ccccc1Cl | < 0.6 |
| O=C(NCCc1ccc(Cl)cc1)C1(c2ccccc2)CC1 | 35.4 (≈ 118 µM) |
| Cc1onc(-c2ccccc2Cl)c1C(=O)N1CCCCCC1 | > 47.8 |
| CC(=O)c1cccc(NC(=O)Nc2nc(C)cc(C)n2)c1 | 1.8 (≈ 6.33 µM) |
| CCSc1nsc(NC(=O)Nc2ccc(F)cc2F)n1 | 1.7 (≈ 5.37 µM) |
| CC(C)CCC1(C)NC(=O)N(CC(=O)NCC(=O)Nc2ccc(F)c(F)c2F)C1=O (stereo unspecified) | > 64.3 |
| OC(CN1CCCCC1)Cn1c2ccccc2c2ccccc21 (stereo unspecified) | 45.1 (≈ 146 µM) |
| CCOc1cc(C(=O)NC2CC(C)(C)NC(C)(C)C2)cc(OCC)c1OCC | > 58.9 |
| O=C(NC1CCCCC1)c1cc2cc(Br)ccc2o1 | < 0.7 |
| Cc1ccc(C)c(NC(=O)C2C3C=CC(O3)C2C(=O)O)c1 (stereo unspecified) | > 43.1 |
| CC(C)CN1C(=O)c2ccc(NC(=O)C3CC3)cc2C1=O | 0.5 (≈ 1.75 µM) |
| Cc1ccc(S(=O)(=O)N2CCN(Cc3ccccc3)CC2)cc1 | 5 (≈ 15.1 µM) |
| Cc1cc(C)nc(SCc2cn3c(C)cccc3n2)n1 | 37.9 (≈ 133 µM) |
| O=C(Nc1cccc(F)c1)N1CCCCCC1 | > 35.4 |
| Cc1nn(C)c(C)c1NS(=O)(=O)c1ccc(Cl)s1 | > 45.9 |
